{"source": "patent US20120289567A1", "about": "“COMBINATIONS OF DARIFENACIN AND SALIVARY STIMULANTS FOR THE TREATMENT OF OVERACTIVE BLADDER” (THERAVIDA, INC., priority 2011, published 2012)", "origin": "cited, not measured here", "settings": "5 mg of pilocarpine"}
{"smiles": "CC[C@@H]1C(=O)OC[C@@H]1Cc1cncn1C", "note": "[pilocarpine]", "values": [{"measurement": "time of maximum saliva output after administration", "result": "about 30 minutes"}]}
